Experimental data as given in ChEMBL document CHEMBL5725671, “Heterocyclic compounds useful as PDK1 inhibitors” (2018).

The compounds below were run against T1, 3-phosphoinositide-dependent protein kinase 1 (Homo sapiens, UniProt O15530) (assay: PDK1 kinase assay: PDK1 (amino acids 51-359) and AKT2 (amino acids 140-467 fused to PIFtide, amino acids […]) were expressed as N-terminally tagged GST fusion proteins in insect cells and purified to homogeneity. Enzyme activity was determined in a coupled PDK1/AKT/FAM-crosstide assay and phosphorylation of FAM-crosstide was determined by standard IMAP protocol (Molecular Devices). For inhibition studies, compounds were titrated 4-fold in DMSO and diluted 40-fold into assay buffer (10 mM Tris HCl pH7.2; 10 mM MgCl2; 0.01% Triton X-100; 1 mM DTT) containing PDK1, AKT2, and FAM-crosstide (final concentrations: 0.75 nM PDK1, 10 nM unphosphorylated AKT2, and 100 nM crosstide substrate). The kinase reaction was initiated by adding ATP to a final concentration of 40 μM of PDK1 and incubated at 25° C. for 30 min. To detect assay product, the kinase reaction was combined with Progressive Binding Solution (1:600 Progressive Binding Reagent, 50% Buffer A, 50% Buffer B, Molecular Devices) in a 1:3 ratio. The mixture was incubated for 2 hours at 25° C. and the plate was scanned on an Analyst AD with excitation at 485 nm and emission at 530 nm. The fluorescence polarization value P is defined by the equation below. The value mP is generated by multiplying the P value for each reaction well by a factor of 1000. The value ΔmP for each well is the mP value for that well minus the mP value for the average negative control. P=(Fpar−Fperp)/(Fpar+Fperp) Eq.:Where par is fluorescence intensity parallel to the excitation plane; and perp is fluorescence intensity perpendicular to the excitation plane. ΔmP values were plotted as a function of compound concentration and the data were analyzed with a 4-parameter fit using GraphPad Prism software.).
T1 sequence (O15530 whole entry): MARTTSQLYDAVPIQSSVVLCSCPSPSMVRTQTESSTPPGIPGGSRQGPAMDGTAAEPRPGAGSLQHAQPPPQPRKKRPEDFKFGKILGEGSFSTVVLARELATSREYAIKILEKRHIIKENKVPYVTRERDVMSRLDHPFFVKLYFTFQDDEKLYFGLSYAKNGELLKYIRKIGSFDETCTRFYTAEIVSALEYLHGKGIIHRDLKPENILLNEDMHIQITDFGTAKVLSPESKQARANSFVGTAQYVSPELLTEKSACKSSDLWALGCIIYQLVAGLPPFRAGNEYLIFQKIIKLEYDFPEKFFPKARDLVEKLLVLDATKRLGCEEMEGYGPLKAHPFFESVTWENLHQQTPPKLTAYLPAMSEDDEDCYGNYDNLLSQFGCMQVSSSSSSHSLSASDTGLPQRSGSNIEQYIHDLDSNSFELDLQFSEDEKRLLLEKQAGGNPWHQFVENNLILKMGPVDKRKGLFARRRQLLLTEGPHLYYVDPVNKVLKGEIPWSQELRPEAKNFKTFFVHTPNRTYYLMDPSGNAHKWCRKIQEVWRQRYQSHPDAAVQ
Type: biochemical
For `N#Cc1cc(F)ccc1NC(=O)c1cc(C(F)(F)F)cnc1NCc1ccc(-c2cnc3[nH]nc(N)c3c2)cc1`, the IC50 was < 0.1 µM. In the case of `C[C@H](NC(=O)c1cc(C#N)cnc1NCC#Cc1ccc2nc(N)ncc2c1)c1ccc(F)cc1`, the IC50 is reported as < 0.1 µM. `Nc1ncnc2ccc(-c3ccc(CNc4ncccc4C(=O)NCc4cncc(F)c4)s3)cc12` was tested, and the IC50 was < 0.1 µM. For `C[C@H](NC(=O)c1nc(C#N)cnc1NCc1ccc(-c2cnc(N)c(CO)n2)cc1)c1ccc(F)c(F)c1`, the IC50 was < 0.1 µM. With `Nc1ncc(-c2ccc(CNc3ncc(C(F)(F)F)cc3C(=O)Nc3ccc(F)cc3)cc2)nc1CO` the IC50 was < 0.1 µM. With `C[C@H](NC(=O)c1cc(C#N)cnc1N[C@H](C)c1ccc(-c2cnc3[nH]nc(N)c3c2)nc1)c1ccc(F)cc1` the IC50 was < 0.1 µM. In the case of `COCCNC(=O)c1cccnc1NCc1ccc(-c2ccc3ncnc(N)c3c2)s1`, the IC50 is reported as > 5 µM. `C[C@H](NC(=O)c1cccnc1NCc1ccc(-c2cc3c(cn2)ncn3C)s1)c1ccc(F)cc1` was tested, and the IC50 was > 5 µM. In the case of `C[C@H](NC(=O)c1cc(C#N)cnc1NCc1ccc(-c2cnc3[nH]nc(N)c3c2)cc1F)c1ccc(F)cc1`, the IC50 is reported as < 0.1 µM. For `Cc1ccc(NC(=O)c2cccnc2NCc2ccc(-c3ccc4ncnc(N)c4c3)s2)cc1F`, the IC50 was > 5 µM. With `Nc1ncnc2ccc(-c3ccc(CNc4ncc(Br)cc4S(=O)(=O)NCc4ccc(F)c(F)c4)s3)cc12` the IC50 was > 5 µM. With `N#Cc1cnc(NCc2ccc(-c3cnc4[nH]ncc4c3)cc2)c(C(=O)NCc2ccc(F)c(F)c2)c1` the IC50 was < 0.1 µM. In the case of `C[C@H](NC(=O)c1cccnc1NCc1ccc(-c2ccc3ncnc(NCCO)c3c2)s1)c1ccc(F)cc1`, the IC50 is reported as < 0.1 µM. For `C[C@H](NC(=O)c1cc(C#N)cnc1NCc1ccc(-c2cnc3[nH]c(=O)[nH]c3c2)c(F)c1)c1ccc(F)cc1`, the IC50 was < 0.1 µM. `C[C@H](NC(=O)c1cc(C#N)cnc1NCc1ccc(-c2cnc3[nH]c(=O)n(C)c3c2)cc1)c1ccc(F)cc1` was tested, and the IC50 was < 0.1 µM. For `Cc1nc(N)cnc1-c1ccc(CNc2ncc(C#N)cc2C(=O)N[C@@H](C)c2ccc(F)cc2)cc1`, the IC50 was > 5 µM. In the case of `C[C@H](NC(=O)c1nc(C(F)(F)F)cnc1NCc1ccc(-c2cnc3[nH]nc(N)c3c2)cc1)c1ccc(F)c(F)c1`, the IC50 is reported as < 0.1 µM. `C[C@H](NC(=O)c1nc(C#N)cnc1N[C@H](C)c1ccc(-c2cnc3[nH]nc(N)c3c2)nc1)c1ccc(F)c(F)c1` was tested, and the IC50 was < 0.1 µM. For `CCc1cnc(NCc2ccc(-c3ccc4ncnc(N)c4c3)s2)c(C(=O)NCc2ccc(F)c(F)c2)c1`, the IC50 was < 0.1 µM. For `C[C@H](NC(=O)c1cc(C#N)cnc1NCc1ccc(-c2cnc3[nH]nc(N)c3c2)cc1Cl)c1ccc(F)cc1`, the IC50 was < 0.1 µM. For `C[C@H](NC(=O)c1nc(C#N)cnc1NCC#Cc1ccc2nc(N)ncc2c1)c1ccc(F)c(F)c1`, the IC50 was < 0.1 µM. In the case of `C[C@H](NC(=O)c1nc(C(F)(F)F)cnc1N[C@H](C)c1ccc(-c2cnc3[nH]nc(N)c3c2)cc1)c1ccc(F)c(F)c1`, the IC50 is reported as < 0.1 µM.
